Entries after “also recorded” stand apart in the source; their conditions may differ. Read-outs that look alike come from different tables or passages of the source.
How the values were obtained:
WI-38 cells [1] = experiment: Propidium iodide (PI) cell-death imaging upon H2O2 stress; assay type: cell-based, human; conditions: for Assay 7: H2O2-resistant, at 10 uM, validated by propidium iodide (PI) cell-death imaging: w/H2O2, 3 hrs/4 hrs/5 hrs, YES/NO; for cytotoxicity at 10 µM: Homo sapiens, WI-38
[2] = system: human dermal fibroblast (HDF) primary cells; experiment: H2O2-resistance in primary human dermal fibroblasts; assay type: cell-based; conditions: for fold induction at 10 µM: Homo sapiens; for Assay 6: H2O2-resistant, at 10 uM, human dermal fibroblast (HDF) primary cells: YES/NO
[3] = Summary score for characterization of 38 core set hits; conditions: for D = Triple resistant: 2-point score, multiplex resistance (cadmium, MMS, H2O2); for S = Sum of Negative scores: human; for C = H2O2- & Cd-resistant: score, resistance to both H2O2 and cadmium
Outline: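 Each score sums results of individual assays on H2O2-resistance screen hits. Nematode lifespan assays were run in 4 to 6 independent trials and scored up to 2. Key phenotypes such as multiplex resistance, FOXO3/NRF2 activation and mTOR down-regulation were weighted at 2 points, with a deduction for human-cell toxicity.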

WI-38 cells [4] = conditions: for No H2O2 stress treatment, at 10 uM (fold change): normalized ATP measurement; for Assay 1: H2O2-resistant: YES/NO, if NO, possibly due to repeated freezing/thawing of stocks
C. elegans = assay type: in vivo, Caenorhabditis elegans; conditions: in vivo
Outline: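 Survival under oxidative stress: 500 μM H2O2 (final) was added to day-4 adults kept in liquid with compounds, FUdR present, 4 wells per molecule and 0.2% DMSO controls, with daily scoring of viability.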

FOXO3 = experiment: qPCR analysis of FOXO3-regulated genes; assay type: cell-based, human; conditions: for fold induction at 10 µM: Homo sapiens; for K = Sestrin induction: score
Outline: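 FOXO3 target-gene expression quantified by qPCR normalised to B2M, PPIA and GAPDH, in WI-38 cells after 24 h exposure to 10 μM compound. Some runs used cells first transfected 36 h with 10 nM FOXO3 or NRF2 siRNA and replated ~24 h before dosing.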

[5] = H2O2 3 hrs, 10 uM, n = 6, negative control 5.44% ± 0.79%, read-out: Percentage of propidium iodide-positive dead cells (under H2O2 stress treatment), 3 hrs
[6] = pre-treatment at 10 uM, 3.5 hours of H2O2, DMSO control 27.4% ± 6.5%, */**/*** = reduced by one/two/three standard deviations, read-out: Percentage of propidium iodide-positive dead cells (under H2O2 stress treatment), at 10 uM
[7] = Experiment 1, HDF cells, read-out: Experiment 1, HDF cells (under H2O2 stress treatment), at 10 uM (fold change)
[8] = Experiment 2, HDF cells, read-out: Experiment 2, HDF cells (under H2O2 stress treatment), at 10 uM (fold change)
[9] = WI-38 cells, 10 μM, (*) = compromised ability to protect cells from H2O2, could be due to stability issue
[10] = asterisks indicate the loss of the ability to protect cells from H2O2 over time
[11] = read-out: Est. ED50, dose response 0.6-20 μM, H2O2-resistance
[12] = WI-38 cells, 10 μM, 24 hrs, n=4, qPCR normalized by B2M, read-out: DDB1 Normalized fold change
[13] = WI-38 cells, 10 μM, 24 hrs, n=4, qPCR normalized by B2M, read-out: GADD45A Normalized fold change
[14] = WI-38 cells, 10 μM, 24 hrs, n=4, qPCR normalized by B2M, read-out: SESN1 Normalized fold change
[15] = qPCR, WI-38 cells, 10 μM, n=4, 24 hrs, normalized by B2M, read-out: CAT Normalized fold change
[16] = qPCR, WI-38 cells, 10 μM, n=4, 24 hrs, normalized by B2M, read-out: SOD2 Normalized fold change
[17] = qPCR, WI-38 cells, 10 μM, n=4, 24 hrs, normalized by B2M, read-out: TXNIP Normalized fold change

SMILES: O=C(NCc1cccnc1)/C(=C\c1ccc(Br)cc1)S(=O)(=O)c1ccccc1 [Gr-7B]
- Assay 7: H2O2-resistant, at 10 uM, validated by propidium iodide (PI) cell-death imaging (WI-38 cells [1]; 10 uM): YES
- cytotoxicity at 10 µM (WI-38 cells [1]; [5]): 5.88%
- cytotoxicity at 10 µM (WI-38 cells [1]; H2O2 4 hrs, 10 uM, n = 6, negative control 16.81% ± 1.42%, read-out: Percentage of propidium iodide-positive dead cells (under H2O2 stress treatment), 4 hrs): 6.44%
- cytotoxicity at 10 µM (WI-38 cells [1]; [6]): 4.7%
- fold induction at 10 µM [2, 7]: 3.71
- fold induction at 10 µM [2, 8]: 3.35
- Assay 6: H2O2-resistant, at 10 uM, human dermal fibroblast (HDF) primary cells [2]: YES
- D = Triple resistant [3]: 0
- S = Sum of Negative scores [3]: 1
- C = H2O2- & Cd-resistant [3]: 0
- H2O2-resistant (WI-38 cells [4]; [9]): YES (*)
- No H2O2 stress treatment, at 10 uM (fold change) (WI-38 cells [4]; WI-38 cells): 0.56 fold change
- Assay 1: H2O2-resistant (WI-38 cells [4]): YES
- H2O2-resistant (WI-38 cells [4]; [10]): YES (*)
- EC50 (WI-38 cells [4]; [11]): 24.7 µM
- H2O2-resistance assay, 1st experiment (C. elegans): YES;
- L = H2O2-resistance in worms (C. elegans): 0
- N = H2O2-resistance in woms (C. elegans): 0
- E = Potential FOXO3 Activation (FOXO3; 2-point score): 0
- fold induction at 10 µM (FOXO3; 24 h, Assay 10(m), at 10 uM, qPCR, read-out: Induction of FOXO3-regulated genes: GADD45A normalized fold-change): 2.07
- fold induction at 10 µM (FOXO3; 24 h, Assay 10(m), at 10 uM, qPCR, read-out: Induction of FOXO3-regulated genes: TXNIP normalized fold-change): 0.26
- fold induction at 10 µM (FOXO3; 10 μM, 24 hrs, WI-38 cells, qPCR, normalized to B2M, n = 4, read-out: GADD45A expression, normalized fold change (FOXO3-regulated gene)): 2.07
- fold induction at 10 µM (FOXO3; 10 μM, 24 hrs, WI-38 cells, qPCR, normalized to B2M, n = 4, read-out: TXNIP expression, normalized fold change (FOXO3-regulated gene)): 0.26
- fold induction at 10 µM (FOXO3; [12]): 1.31
- fold induction at 10 µM (FOXO3; [13]): 2.07
- fold induction at 10 µM (FOXO3; [14]): 0.952
- fold induction at 10 µM (FOXO3; fold change, qPCR, WI-38 cells, 10 μM, 24 hrs, read-out: Summary of effects on FOXO3-regulated genes: GADD45A): 2.07
- fold induction at 10 µM (FOXO3; fold change, qPCR, WI-38 cells, 10 μM, 24 hrs, read-out: Summary of effects on FOXO3-regulated genes: TXNIP): 0.26
- fold induction at 10 µM (FOXO3; [15]): 1.13
- fold induction at 10 µM (FOXO3; [16]): 1.33
- fold induction at 10 µM (FOXO3; [17]): 0.262
- K = Sestrin induction (FOXO3): 0
- E = Potential FOXO3 Activation (FOXO3; summary score): 0

SMILES: COC(=O)CCc1sc2c(c1[N+](=O)[O-])NC(=O)CCC2 [O20]
- Assay 7: H2O2-resistant, at 10 uM, validated by propidium iodide (PI) cell-death imaging (WI-38 cells [1]; 10 uM): YES
- cytotoxicity at 10 µM (WI-38 cells [1]; [5]): 3.28%
- cytotoxicity at 10 µM (WI-38 cells [1]; [6]): 9.4%
- fold induction at 10 µM [2, 7]: 1.08
- fold induction at 10 µM [2, 8]: 63.9
- Assay 6: H2O2-resistant, at 10 uM, human dermal fibroblast (HDF) primary cells [2]: YES
- D = Triple resistant [3]: 0
- S = Sum of Negative scores [3]: 0
- C = H2O2- & Cd-resistant [3]: 1
- H2O2-resistant (WI-38 cells [4]; [9]): YES
- No H2O2 stress treatment, at 10 uM (fold change) (WI-38 cells [4]; WI-38 cells): 1.12 fold change
- Assay 1: H2O2-resistant (WI-38 cells [4]): YES
- H2O2-resistant (WI-38 cells [4]; [10]): YES
- EC50 (WI-38 cells [4]; derived from dose response curves, 0.6-20 uM, H2O2-resistance of WI-38 cells): 12.9 µM
- EC50 (WI-38 cells [4]; [11]): 12.9 µM
- L = H2O2-resistance in worms (C. elegans): 0
- N = H2O2-resistance in woms (C. elegans): 0
- Induction of at least two of five FOXO3-regulated genes (SOD2, GADD45A, CAT, DDB1, TXNIP) (FOXO3; 10 μM, 24 hrs, WI-38): significant induction; also recorded: significant, induction
- E = Potential FOXO3 Activation (FOXO3; 2-point score): 0
- fold induction at 10 µM (FOXO3; 24 h, Assay 10(m), at 10 uM, qPCR, read-out: Induction of FOXO3-regulated genes: CAT normalized fold-change): 1.35
- fold induction at 10 µM (FOXO3; 24 h, Assay 10(m), at 10 uM, qPCR, read-out: Induction of FOXO3-regulated genes: DDB1 normalized fold-change): 1.25
- fold induction at 10 µM (FOXO3; 24 h, Assay 10(m), at 10 uM, qPCR, read-out: Induction of FOXO3-regulated genes: SESN1 normalized fold-change): 1.73
- fold induction at 10 µM (FOXO3; WI-38, 24 h, read-out: SESN1 expression): > 1.5
- fold induction at 10 µM (FOXO3; 10 μM, 24 hrs, WI-38 cells, qPCR, normalized to B2M, n = 4, read-out: CAT expression, normalized fold change (FOXO3-regulated gene)): 1.35
- fold induction at 10 µM (FOXO3; 10 μM, 24 hrs, WI-38 cells, qPCR, normalized to B2M, n = 4, read-out: DDB1 expression, normalized fold change (FOXO3-regulated gene)): 1.25
- fold induction at 10 µM (FOXO3; 10 μM, 24 hrs, WI-38 cells, qPCR, normalized to B2M, n = 4, read-out: SESN1 expression, normalized fold change (FOXO3-regulated gene)): 1.73
- fold induction at 10 µM (FOXO3; [12]): 1.25
- fold induction at 10 µM (FOXO3; [13]): 1.04
- fold induction at 10 µM (FOXO3; [14]): 1.73
- fold induction at 10 µM (FOXO3; fold change, qPCR, WI-38 cells, 10 μM, 24 hrs, read-out: Summary of effects on FOXO3-regulated genes: CAT): 1.35
- fold induction at 10 µM (FOXO3; fold change, qPCR, WI-38 cells, 10 μM, 24 hrs, read-out: Summary of effects on FOXO3-regulated genes: DDB1): 1.25
- fold induction at 10 µM (FOXO3; fold change, qPCR, WI-38 cells, 10 μM, 24 hrs, read-out: Summary of effects on FOXO3-regulated genes: SESN1): 1.73
- fold induction at 10 µM (FOXO3; [15]): 1.35
- fold induction at 10 µM (FOXO3; [16]): 1.09
- fold induction at 10 µM (FOXO3; [17]): 1.12
- K = Sestrin induction (FOXO3): 1
- E = Potential FOXO3 Activation (FOXO3; summary score): 0
